Experimental data taken from patent publication US8653048B2 (Sanlugen Pharmatech Ltd., priority 2009, dated 2014).
Where two headings read alike, the source gives them in different places.

Columns and labels:
[1] = In vitro stability in simulated intestinal fluid (HPLC); format: physicochemical; conditions: for stability in simulated intestinal fluid (in words): 0-24 h; for Degrade % / HPLC peak area of drug: simulated intestinal fluid
[2] = Stability in human blood plasma (HPLC); format: in vitro ADME; conditions: for stability in blood plasma (in words): 0-12 h; for chromatography peak area of drug / Degrade %: plasma
Description: Isopropanol (1 mL) was then added into the blood sample and vortexed for 30 s and kept still for 5 min. 2.5 ml of EtOAc was added and votexed and centrifuged at 4000 rpm for 15 minutes. The supernatant was taken and dried by blowing in nitrogen. The dried sample was redissolved in 200 μL HPLC mobile phase solution. 20 μL sample was loaded to the HPLC.
The samples were processed using the standard method.

[3] = Pharmacokinetics of gemcitabine in mice, intravenous and oral; format: in vivo; conditions: both sexes, Kunming, mouse, plasma, 50 mg/kg; for MRT last: read-out: MRT0-t
Description: Kunming strain white mice (25+1 g, provided by Experimental Animal Center of Shandong University, half of which were male, half were female).
The solution was filtered and sterilized using a 0.22 μm microfiltration membrane.
120 healthy Kunming mice were taken and divided into two groups randomly. […] The second group was given gemcitabine by intravenous injection in a tail vein. Five mice were settled parallel at each time point. The dosage was 50 mg/kg (equivalent to 0.2 mL per mouse). The mice were fasted but allowed to drink for a 12 h period before administration. Blood samples were drawn from eyebase veniplex at 5 min, 15 min, 30 min, 45 min, 1 h, 2 h, 4 h, 6 h, 8 h, 12 h, 24 h, 48 h after the administration and put into hepain sodium treated centrifuge tubes containing 2.5 μL tetrahydrouridine solution (THU, 10 mg/ml) and centrifuged for 15 min at 4000 r/min. Isopropanol (1 mL) was added into the solution and vortexed for 30 s and kept still for 5 min. 2.5 ml of EtOAc was added and votexed and centrifuged at 4000 rpm for 15 minutes. The supernatant was taken and dried by blowing in nitrogen. The dried sample was redissolved in 200 μL HPLC mobile phase solution. 20 μL sample was loaded to the HPLC. The chromatography and peak area were recorded.

[4] = tested on: H460 cells, a human lung cancer cell line, inoculated in nude mice; test: H460 tumor in nude mice, oral administration of SL-01; format: in vivo, Balb/c female nude mice; conditions: for Tumor Weight, Average Value: end of the experiment; for drop of animal weight: figure fits day 22 versus negative control (Table 13)
Description: 1. […] Suspension formulation was prepared using 2.5% starch for intragastric administration. […] In the test, it was dissolved in normal saline and filtered with microfiltration membrane and administrated by tail vein injection. Positive control drug: Ftorafur (FT-207) produced by Qilu Pharmaceutical Co. Ltd., oral formulation.
2. Experimental animals: 50 Balb/c female nude mice at 4-5 weeks old, purchased from Peking University Health Science Center.
1. Culture of tumor cells: H460 cells were cultured in an incubator with 5% CO2 at 37° C. using RPMI-1640 nutrient solution containing 10% fetal calf serum. The cells were passaged through routine method.
2.2 Method of inoculating tumor cells in nude mice: cells were collected when they grew to about […] in culture flasks. Cells were washed twice with PBS before they were digested, then 1.5 mL of digestion solution juices was added into every bottle. They were observed under a microscope and the digestion was terminated after the cells were shed. Cell suspension was collected into 50 mL of centrifugal tube and centrifuged and washed twice with PBS. It was counted and suspended with 10 mL of normal saline to get the tumor cell suspension of inoculated nude mice. The tumor cells (1×10^7/0.2 mL) were inoculated in the left front armpits of mice. The tumor growth was observed after the inoculation.
4. Evaluation protocols for drug treating effect: these mice were weighed before drug administration and every week thereafter. The long tumor pathline (a) and the short tumor pathline (b) were measured at the same time. The formula for calculating the tumor volume is V=(a×b^2)/2. Mice were euthanized after drug administration for 3 weeks. The tumor was taken out and weighed. […] W was the tumor weight of the treatment group.

[5] = SL-01 middle dosage 60 mg/kg gavage
[6] = SL-01 middle dosage group 60 mg/kg gavage
[7] = SL-01 small dosage 30 mg/kg gavage
[8] = SL-01 small dosage group 30 mg/kg gavage

Nc1ccn([C@@H]2O[C@H](CO)[C@@H](O)C2(F)F)c(=O)n1 [Gemcitabine, gemcitabine, reference compound]
stability in simulated intestinal fluid (in words) [1]: degraded | Degrade % ([1]; 0 min): 0% | HPLC peak area of drug ([1]; 0 min): 643704.938 | Degrade % ([1]; 1 h): 27.67% | HPLC peak area of drug ([1]; 1 h): 465528.594 | Degrade % ([1]; 2 h): 36.2% | HPLC peak area of drug ([1]; 2 h): 410685.313 | Degrade % ([1]; 4 h): 59.98% | HPLC peak area of drug ([1]; 4 h): 257604.125 | Degrade % ([1]; 6 h): 69.37% | HPLC peak area of drug ([1]; 6 h): 197106.406 | Degrade % ([1]; 8 h): 76.72% | HPLC peak area of drug ([1]; 8 h): 149816.906 | Degrade % ([1]; 12 h): 98.46% | HPLC peak area of drug ([1]; 12 h): 9873.897 | Degrade % ([1]; 24 h): 99.13% | HPLC peak area of drug ([1]; 24 h): 5571.352 | stability in blood plasma (in words) [2]: stable | chromatography peak area of drug ([2]; 0 min): 562562.938 | chromatography peak area of drug ([2]; 1 h): 592859.625 | chromatography peak area of drug ([2]; 2 h): 466418.094 | chromatography peak area of drug ([2]; 4 h): 483743.594 | chromatography peak area of drug ([2]; 6 h): 552648.313 | chromatography peak area of drug ([2]; 8 h): 540059.125 | chromatography peak area of drug ([2]; 12 h): 544300.688 | AUC(0-t) ([3]; iv): 11300 ng·h/mL | Cmax ([3]; iv): 11500 ng/mL | Tmax ([3]; iv): 4.98 min | half-life ([3]; iv): 58.2 min | MRT last ([3]; iv): 64.2 min | bioavailability ([3]; oral, AUCoral/AUCiv, mice, read-out: Absolute bioavailability): 35.6% | AUC(0-t) ([3]; po): 4020 ng·h/mL | Cmax ([3]; po): 2600 ng/mL | Tmax ([3]; po): 30 min | half-life ([3]; po): 49.8 min | MRT last ([3]; po): 76.8 min | Mean Volume of Tumor ([4]; Gemcitabine 30 mg/kg i.v. 1 per 3 days, day 7): 700.7 mm^3 | Mean Volume of Tumor ([4]; Gemcitabine 30 mg/kg i.v. 1 per 3 days, day 14): 759.7 mm^3 | Mean Volume of Tumor ([4]; Gemcitabine 30 mg/kg i.v. 1 per 3 days, day 18): 804.5 mm^3 | Mean Volume of Tumor ([4]; Gemcitabine 30 mg/kg i.v. 1 per 3 days, day 22): 868.0 mm^3 | Mean Weight of Nude Mice ([4]; Gemcitabine 30 mg/kg i.v., day 0): 19.1 g | Mean Weight of Nude Mice ([4]; Gemcitabine 30 mg/kg i.v., day 7): 19.0 g | Mean Weight of Nude Mice ([4]; Gemcitabine 30 mg/kg i.v., day 14): 18.6 g | Mean Weight of Nude Mice ([4]; Gemcitabine 30 mg/kg i.v., day 22): 18.2 g | Tumor Weight, Average Value ([4]; Gemcitabine 30 mg/kg i.v.): 0.89 g | efficacy by t-test, in words ([4]; gemcitabine group 30 mg/kg i.v.): significant efficacy

CCCCCCCCCCCCOC(=O)c1nccnc1C(=O)Nc1ccn([C@@H]2O[C@H](CO)[C@@H](O)C2(F)F)c(=O)n1 [Compound 4, Dodecyl-3-((1-((2R,4R,5R)-3,3-difluoro-4-hydroxy-5-(hydroxymethyl)-tetrahydrofuran-2-yl)-2-oxo-1,2-dihydropyrimidin-4-yl)carbamoyl)pyrazine-2-carboxylate]
stability in simulated intestinal fluid (in words) [1]: stable | HPLC peak area of drug ([1]; 0 min): 288987.906 | HPLC peak area of drug ([1]; 1 h): 231129.797 | HPLC peak area of drug ([1]; 2 h): 196319.828 | HPLC peak area of drug ([1]; 4 h): 245622.906 | HPLC peak area of drug ([1]; 6 h): 247957.219 | HPLC peak area of drug ([1]; 8 h): 239958.297 | HPLC peak area of drug ([1]; 12 h): 247782.500 | HPLC peak area of drug ([1]; 24 h): 256782.600 | stability in blood plasma (in words) [2]: degradable | Degrade % ([2]; 0 min): 0% | chromatography peak area of drug ([2]; 0 min): 336275.344 | Degrade % ([2]; 1 h): 2.77% | chromatography peak area of drug ([2]; 1 h): 326948.219 | Degrade % ([2]; 2 h): 22.11% | chromatography peak area of drug ([2]; 2 h): 261917.094 | Degrade % ([2]; 4 h): 46.99% | chromatography peak area of drug ([2]; 4 h): 178242.781 | Degrade % ([2]; 6 h): 82.31% | chromatography peak area of drug ([2]; 6 h): 59465.750 | Degrade % ([2]; 8 h): 89.64% | chromatography peak area of drug ([2]; 8 h): 43894.633 | Degrade % ([2]; 12 h): 96.17% | chromatography peak area of drug ([2]; 12 h): 12894.514 | Mean Volume of Tumor ([4]; SL-01 middle dosage 60 mg/kg gastric gavage 1 per 3 days, day 7): 739.6 mm^3 | Mean Volume of Tumor ([4]; SL-01 middle dosage 60 mg/kg gastric gavage 1 per 3 days, day 14): 823.4 mm^3 | Mean Volume of Tumor ([4]; SL-01 middle dosage 60 mg/kg gastric gavage 1 per 3 days, day 18): 870.2 mm^3 | Mean Volume of Tumor ([4]; SL-01 middle dosage 60 mg/kg gastric gavage 1 per 3 days, day 22): 905.3 mm^3 | Inhibition ratio (tumor weight) [4, 5]: 53.7% | Mean Weight of Nude Mice ([4]; SL-01 middle dosage 60 mg/kg gavage, day 0): 19.5 g | Mean Weight of Nude Mice ([4]; SL-01 middle dosage 60 mg/kg gavage, day 7): 19.1 g | Mean Weight of Nude Mice ([4]; SL-01 middle dosage 60 mg/kg gavage, day 14): 19.6 g | Mean Weight of Nude Mice ([4]; SL-01 middle dosage 60 mg/kg gavage, day 22): 19.6 g | Tumor Weight, Average Value [4, 5]: 0.95 g | efficacy by t-test, in words [4, 6]: significant efficacy | drop of animal weight [4, 6]: 14.8% | Mean Volume of Tumor ([4]; SL-01 small (low) dosage 30 mg/kg gastric gavage 1 per 3 days, day 7): 761.3 mm^3 | Mean Volume of Tumor ([4]; SL-01 small (low) dosage 30 mg/kg gastric gavage 1 per 3 days, day 14): 840.9 mm^3 | Mean Volume of Tumor ([4]; SL-01 small (low) dosage 30 mg/kg gastric gavage 1 per 3 days, day 18): 950.5 mm^3 | Mean Volume of Tumor ([4]; SL-01 small (low) dosage 30 mg/kg gastric gavage 1 per 3 days, day 22): 1092.0 mm^3 | Inhibition ratio (tumor weight) [4, 7]: 48.3% | Mean Weight of Nude Mice ([4]; SL-01 small dosage 30 mg/kg gavage, day 0): 19.6 g | Mean Weight of Nude Mice ([4]; SL-01 small dosage 30 mg/kg gavage, day 7): 19.3 g | Mean Weight of Nude Mice ([4]; SL-01 small dosage 30 mg/kg gavage, day 14): 19.9 g | Mean Weight of Nude Mice ([4]; SL-01 small dosage 30 mg/kg gavage, day 22): 19.7 g | Tumor Weight, Average Value [4, 7]: 1.06 g | efficacy by t-test, in words [4, 8]: significant efficacy | drop of animal weight [4, 8]: 14.3%
